Data: US10039741B2, “Use of delta tocopherol for the treatment of lysosomal storage disorders” (The United States of America, as represented by the …, priority 2010, dated 2018)

What was measured:
[1] = tested on: NPC cat model; details: cited from earlier work
[2] = tested on: NPC mouse model; details: cited from earlier work
[3] = tested on: NPC patient-derived skin fibroblasts; assay: Amplex red cholesterol assay (free cholesterol); format: cell-based, human; details: NPCD fibroblasts
Source text: Free cholesterol accumulation in cells is a hallmark of NPC disease. The Amplex red cholesterol assay was used to screen an approved drug library in the NPC patient-derived skin fibroblasts that have free cholesterol accumulation in late endosome and lysosome. […] We then show δ-tocopherol in the filipin cholesterol staining assay, a method used clinically for NPCD diagnosis. […] Lysosome size is usually enlarged in the NPCD cells using a lysotracker staining assay.
The free cholesterol level in these cells was then measured by a cholesterol oxidase coupled HRP/amplex red detection method with a commercial available kit (Invitrogen). The cells were seeded to black, tissue culture-treated 1536-well plates (Greiner Bio-One, Monroe, N.C.) at 800 cells/well in 5 μl medium by a Multidrop Combi dispenser (Thermo Scientific, Waltham, Mass.) and cultured for 24 hours. The assay plates were added with 23 nl/well of compound DMSO solution using a pintool station (Kalypsys, San Diego, Calif.) and cultured for 3 days. The 1536-well assay plate was washed by a plate-inverted centrifugation method that removing medium by centrifuging plates upside down against a stack of paper towel at 1000 rpm for 1 min followed by addition of 7 μl/well PBS buffer, repeating for two times. The PBS buffer was added with a 45 degree angled dispenser (Kalypsys) or a Multi-Drop Combi dispenser set at medium speed to reduce disturbance to the cells. After the cell wash, 2.5 μl/well of detection mixture from the kit was added followed by 1 hour incubation at 37° C. With the addition of the detection mixture, the cells were lysed by the detergent containing buffer and free cholesterols in cell lysate were oxidized by cholesterol oxidase to produce H2O2 which reacting with amplex red dye in the presence of horseradish peroxidase to yield red fluorescence signal. A ViewLux plate reader (PerkinElmer, Boston, Mass.) was used to measure the fluorescent signal in assay plates with the excitation of 573 nm and emissions of 610 nm.

[4] = tested on: NPCD fibroblasts; assay: Lysotracker staining assay (lysosome size); format: cell-based, human; details: NPCD fibroblasts
Method: Lysotracker is fluorescent dye that stains acidic compartments in live cells and is well-retained after aldehyde fixation. We have optimized a lysotracker staining assay to visualize the enlarged lysosome size in the NPC skin fibroblasts by applying appropriate concentration of lysotracker dye in comparison with these normal fibroblast cells. Cells were seeded at 8000 cells/well in 100 μl medium in a black/clear bottom, tissue culture treated plate and cultured overnight or in a dedicated time. The cells were live-stained with 100 u/well 50 nM Lysotracker Red-99 dye (Invitrogen) dissolved medium at 37° C. for 1 hr followed by two-times plate wash with PBS buffer using the plate-inverted centrifugation method. The plate was then added with 100 μl/well 3.2% formaldehyde and 1 μg/ml Hoechst 33342 (Invitrogen) in PBS and incubated at room temperature for 30 minutes. After three times of plate wash with PBS buffer, samples were stored at 4° C. until imaging. Samples were photographed using an IN Cell Analyzer 1000 (GE Healthcare) with a 20× objective equipped with CCD camera. DAPI filter and TRITC filter were used to visualize Hoechst and Lysotracker red, respectively. The images were processed by Adobe Photoshop.

[5] = tested on: Wolman disease cells; assay: Amplex-red cholesterol assay (total cholesterol), combination therapy; format: cell-based, human
Source text: (1) Amplex-red cholesterol assay. This biochemical assay (Invitrogen) uses cholesterol oxidase and a HRP-Amplex-re reporting system to measure the free cholesterol level in cells. With the addition of acid lipase to this assay, that hydrolyzes cholesterol ester to free cholesterol, the level of total cholesterol in cells including the cholesterol ester can be measured. This assay was used for detecting the total cholesterol level of in fibroblasts from patients with Wolman disease.

[6] = tested on: wild type cells; assay: Lipid measurement by mass spectrometry (GC/MS); format: cell-based, human; details: wild type cells; 80 μM α-tocopherol or 40 uM δ-tocopherol for 5 days
Method: (§1) Effects of δ-tocopherol and α-tocopherols on (FIG. 4A) free cholesterol, (FIG. 4B) cholesterol ester and (FIG. 4C) sphingomyelin in NPC cells. NPC or WT cells were treated with DMSO, 80 μM α-tocopherol or 40 uM δ-tocopherol for 5 days. Cell pellets were collected and extracted for lipids. FC EC and sphingomyelin levels were measured by GC/MS. (FIG. 4D) Effects of δ-tocopherols and α-tocopherols on cholesterol efflux.
(§2) Cell pellets were collected from 100-mm dishes and washed once with 10 ml PBS. Proteins were assayed using the BCA kit (Sigma-Aldrich) and lipids were extracted by modified Bligh and Dyer procedure (29) from the cells. Internal standards were added based on protein concentration that included N12:0 sphingomyelin, D7-cholesterol, 17:0 cholesterol ester (Avanti Polar Lipids, Inc). A portion of the lipid extract was used for detection of sphingomyelins using direct infusion mass spectrometric assay with lithium hydroxide for facilitating ionization and the rest was used to convert cholesterol and its ester into acetate by derivatization. The derivatization was performed by treating the dried crude lipid extract with solutions of 1 M acetic acid with 1 M DMAP in chloroform and 1 M EDC in chloroform at 50° C. for 2 hours. The derivatized product was extracted with hexane and analyzed by direct infusion mass spectrometric assay with 5% ammonium hydroxide for facilitating ionization.
(§3) A triple-quadrupole mass spectrometer equipped with an electrospray was used for analysis of lipids in positive mode. Sphingomyelins, cholesterol and cholesterol esters were detected by neutral loss scan of 213 (collision energy: 50 V), neutral loss scan of 77 (collision energy: 14 V) and precursor ion scan of m/z 369 (collision energy: 14 V) respectively. Data processing of mass spectrometric analyses including ion peak selection, data transferring, peak intensity comparison and quantitation was conducted using self-programmed Microsoft Excel macros (30).

[7] = tested on: NPC fibroblasts; assay: Lipid measurement by mass spectrometry (GC/MS); format: cell-based, human; details: 80 μM α-tocopherol or 40 uM δ-tocopherol for 5 days
Method: as §1, §2, §3

[8] = human plasma, physiological level; cited from earlier work

## OC[C@H]1O[C@@H]2O[C@H]3[C@H](O)[C@@H](O)[C@@H](O[C@H]4[C@H](O)[C@@H](O)[C@@H](O[C@H]5[C@H](O)[C@@H](O)[C@@H](O[C@H]6[C@H](O)[C@@H](O)[C@@H](O[C@H]7[C@H](O)[C@@H](O)[C@@H](O[C@H]8[C@H](O)[C@@H](O)[C@@H](O[C@H]1[C@H](O)[C@H]2O)O[C@@H]8CO)O[C@@H]7CO)O[C@@H]6CO)O[C@@H]5CO)O[C@@H]4CO)O[C@@H]3CO [Beta-cyclodextrin]
[1]
  cholesterol accumulation: reduce cholesterol accumulation
  life span: increase in life span
[2]
  cholesterol accumulation: reduce cholesterol accumulation
  life span: increase in life span

## CC(=O)N[C@@H](CS)C(=O)O [NAc, N-acetyl cysteine, reference compound]
[3]
  cholesterol amount (cholesterol reduction): did not have any effect
[4]
  enlarged lysosome size: did not have any effect

## O=C1O[C@H]([C@@H](O)CO)C(O)=C1O [vitamin C, reference compound]
[3]
  cholesterol amount (cholesterol reduction): not active
[4]
  enlarged lysosome size: not active

## Cc1c(C)c2c(c(C)c1O)CC[C@@](C)(CCC[C@H](C)CCC[C@H](C)CCCC(C)C)O2 [α-tocopherol, reference compound]
[5]; 40 μM delta-tocopherol or 80 μM alpha-tocopherol alone
  cholesterol level, sole therapy: cholesterol reduction effect
[5]; alpha-tocopherol 20 uM combined with 10 μM MBCD
  cholesterol level, combination: cholesterol reduction effect
[6]
  amount of cholesterol ester: significantly reduced
  sphingomyelin amount: not significantly changed
[7]; NPCD cells
  amount of cholesterol ester: significantly reduced
  sphingomyelin amount: not significantly changed
[7]; NPCD fibroblasts
  free cholesterol level: not statistically different
[8]
  plasma concentration: ~26 µM

## Cc1c(O)cc2c(c1C)O[C@](C)(CCC[C@H](C)CCC[C@H](C)CCCC(C)C)CC2 [γ-tocopherol, reference compound]
[3]; Homo sapiens, Skin fibroblast, read-out: EC50, reduction of cholesterol accumulation
  EC50: 60 to 80 µM

## methyl-beta-cyclodextrin [MBCD, reference compound]
[5]; MBCD at 0.3 mM alone
  cholesterol level: time dependent reduction

## vitamin D [reference compound]
[3]
  cholesterol amount (cholesterol reduction): not active
[4]
  enlarged lysosome size: not active

## vitamin K [reference compound]
[3]
  cholesterol amount (cholesterol reduction): not active
[4]
  enlarged lysosome size: not active
